This is an account of results in US12156876B2, “Formulations of influenza therapeutics” (priority 2018, dated 2024).

One data set has as its system influenza. Put plainly: anti-influenza potency. The data set is classed as cell-based.
For data set [1] the following is noted: BALB/C, mouse, in vivo.

Consider `O=C(O)C1C2CCC(CC2)C1n1cc(F)c2cnc(-c3c[nH]c4ncc(Cl)cc34)nc21` (centres unmarked) [Compound 1, 3-(2-(5-chloro-1H-pyrrolo[2,3-b]pyridin-3-yl)-5-fluoro-7H-pyrrolo[2,3-d]pyrimidin-7-yl)bicyclo[2.2.2]octane-2-carboxylic acid], for which the 50% effective concentration (EC50) in the data set on influenza lay in the range of 0.1 to 3 nM. For the same compound, the “drug level excess of the therapeutic dose (anti-influenza potency EC50)” value in data set [1] is recorded as “at least 100 fold”.
